Measured values published in a melting point compilation (Tetko et al.; mined from patent text by program, amines drawn as free bases though some values may be those of a salt).

SMILES	melting point
O=C1N(Cc2ccccc2)C(O)C2CSC(c3ccccc3)N12 (mixture of isomers)	151 to 153 °C
CC(C)=CCCC(C)C1CCC2C3=CC=C4CC(O)CCC4(C)C3CCC21C (configuration not stated)	114 to 117 °C
CCCCc1nc2cc(Cl)cc(C(=O)O)c2n1C(C)c1ccc(C(=O)O)cc1 (configuration not stated)	312 to 315 °C
CC(C)(CO)NC(=O)c1nn(-c2ccc(F)cc2F)c2c1C1CCC2CC1	128 to 131 °C
O=C(O)c1cccc(-c2nccc(-c3ccc(F)cc3)n2)c1	239 to 241 °C
COC(=O)c1ccc(C(=O)C(=O)c2ccc3c(c2)C(C)(C)CCC3(C)C)cc1	93 to 96 °C
N#Cc1cncc(-c2ccc(OCc3ccccc3)cc2)c1Nc1ccc2[nH]ccc2c1	163 to 165 °C
CN(C)c1ccc(NC(=O)N(CCC2=CCCCC2)C[C@H]2CC[C@H](CN(CCC3=CCCCC3)C(=O)Nc3ccc(N(C)C)cc3)CC2)cc1	152 to 155 °C
O=C(Nc1cccc(Cl)c1)Nc1ccc(Br)cc1-c1nnn[nH]1	258 to 263 °C
NC(=O)CCC(=O)c1ccccc1	122 to 124 °C
CC(C)(C)OC(=O)Nc1ccc2ccc(C#N)cc2c1	126 to 128 °C
COc1cc(Nc2c(C#N)cnc3cc(-c4cc(CN5CCOCC5)c(CN5CCOCC5)s4)c(OC)cc23)c(Cl)cc1Cl	120 to 124 °C
CCOC(=O)c1cnc(-c2ccccc2OCC)[nH]c1=O	144 to 149 °C
COc1ccc(C2(O)CC3CCC(C2)N3C)cc1 (configuration not stated)	162 °C
Cc1nc(C(C)O)cn1Cc1ccccc1 (configuration not stated)	162 to 168 °C
CCOC(=O)c1cc2c(Cl)c(OC)c(OC)cc2s1	124 to 126 °C
COc1cc2c(cc1OC)C(Cc1cc(I)c(N)c(I)c1)NCC2 (configuration not stated)	169 to 171 °C
COc1cc(C=CC(=O)Nc2c(OC)nc3c(C)cc(C)cc3c2-c2ccccc2Cl)cc(OC)c1OC(C)=O	230 to 231 °C
NC1=NN(c2cccc(F)c2)CC1	146 to 147 °C
COc1ccccc1C1=C(C#N)C(c2ccccc2[N+](=O)[O-])c2c[nH]nc2N1 (configuration not stated)	207 °C
N#Cc1nc2ccc(Cl)cc2c2c1ncn2-c1ccccc1Cl	248 to 250 °C
COc1ccccc1N1CCC(CNC(=O)Nc2c(C(C)C)cc(N)cc2C(C)C)(c2cccc(OCCCO)c2)CC1	203 to 205 °C
COc1ccc(CN(C)CCCSc2ccc(NC(=O)c3cccc4c(=O)c5ccccc5sc34)cc2)cc1OC	148 °C

SMILES	melting point
COC(Nc1ccccc1)(OC)c1ccnc(C(=O)c2ccc(Cl)cc2)c1	137 to 138 °C
CCCCOC(=O)COc1ccc(C(=O)Nc2cc(C)ccc2Sc2ccccc2-c2nnn[nH]2)cc1	146 to 148 °C
CC1CC(=O)NN=C1c1ccc2c(c1)C1(CC1)C(=O)N2 (configuration not stated)	291 to 293 °C
COC(=O)c1sc2cccc(OC)c2c1N(C)C	69 to 73 °C
O=C(CCc1ccc2cccc(O)c2n1)NO	165 to 167 °C
COc1ccc2ncc(CO)c(OC(C)C)c2c1	66 to 68 °C
CCCNc1onc2c1c(=O)n(C)c(=O)n2C	164 to 166 °C
COc1cc2c(cc1OCc1ccccc1)C(c1ccccc1)NCC2 (configuration not stated)	123 to 125 °C
CCP(=O)(CC)Cc1ccccc1O	127 °C
CCOC(=O)C1=C(C)Nc2nc(N)nc(N)c2C1c1cccnc1 (configuration not stated)	224 °C
Cc1ccc(C(=O)NC(NC(=S)Nc2cccnc2)C(C)C)cc1 (configuration not stated)	184 to 186 °C
CCCc1c2nc(C(=O)OCC)cc(OCC)c2cc2c(=O)cc(C(=O)OCC)oc12	190 to 192 °C
COc1cc(C(=O)O)c(OC)c2c1C(C)(C)CCC2(C)C	187 °C
COC(=O)[C@@H]1C[C@@H](Br)C(=O)[C@@H]2[C@@]3(C)C[C@@H](c4ccoc4)OC(=O)[C@H]3CC[C@]21C	170 to 173 °C
CCOC(=O)Nc1ccc(OC(=O)NC)cc1C	153 to 155 °C
Cc1cc(C#Cc2cccc(-c3ccccc3)c2)ccn1	56 to 58 °C
CS(=O)(=O)c1cc(Cl)ccc1C(=O)c1cnoc1C1CC1	183 to 185 °C
Cc1ccc(F)cc1C(=O)Nc1ccc(C(=O)N2CCC=Cc3sccc32)c(Cl)c1	125 to 132 °C
COc1ccc(-c2nc(Cn3ccnc3)cs2)cc1	89 to 90 °C
COCN1C(C)=C(C(=O)O)C(c2cccc(Cl)c2Cl)C(C(=O)O)=C1C	155 to 156 °C
CCn1cc(-c2nnn[nH]2)c(=O)c2cc(F)c(N3CCN(c4ncccn4)CC3)c(OC(F)F)c21	265 to 268 °C
O=C(CC(=O)c1ccc(C(F)(F)F)cc1[N+](=O)[O-])c1ccccc1	101 to 103 °C
O=c1ccn(C2OC(C(O)CO)C(O)C2O)c(=O)[nH]1 (configuration not stated)	175 to 176 °C

SMILES	melting point
Clc1cccc2c(CN3CC=C(c4ccc5[nH]ccc5c4)CC3)n[nH]c12	164 to 167 °C
CC(C)CCOC(=O)COc1cc(F)ccc1C(=O)NCc1cccc([N+](=O)[O-])c1	65 to 68 °C
CCCCCCCCCCCCC#CC#CCCCCCCCC(C(N)=O)C(C)c1ccccc1 (configuration not stated)	65.5 to 66.5 °C
CCCCc1sc2ccccc2c1-c1ccc(-c2ccc(OC(C(=O)O)c3ccccc3)cc2)cc1 (configuration not stated)	157 to 159 °C
CC(=O)C(=NNc1ccc(Oc2ccccc2)cc1)Sc1ccc(Cl)cc1	152 to 155 °C
COc1cccc(OC)c1C(=O)Nc1oncc1-c1ccc(C(F)(F)F)cc1	199 to 201 °C
COC1(Nc2ccccc2CCCc2ccc(Cl)c(Cl)c2)CC=C(C(=O)O)C=C1[N+](=O)[O-] (configuration not stated)	127 to 129 °C
COc1ccc(Br)cc1OCCCCCc1ccc(F)cc1	46 to 47 °C
Cc1cn2c(=O)c3c(F)cccc3nc2s1	245 to 246 °C
Cc1cc(C#N)ccc1-c1cccc(C=O)c1	86 to 86.5 °C
O=C1c2cccc3cc4ccccc4c(c23)C(=O)N1CCNCCN1C(=O)c2cccc3cc4ccccc4c(c23)C1=O	271 °C
CN(C)c1ccc(C2OC(C)(C)N=C2c2ccccc2)cc1 (configuration not stated)	123 °C
Cc1cc(C)cc(-n2ncc(C(=O)O)c2C(N)=O)c1	223 to 225 °C
O=C(N[C@@H]1CCc2ccccc21)c1nn(-c2ccc(F)cc2F)c2c1C1CCC2C1 (some centres not stated)	158 to 161 °C
Cn1nc(-c2cc(C(C)(C)C)c(O)c(C(C)(C)C)c2)c2cccnc21	152 to 154 °C
CC1Oc2cc(Cl)ccc2/C1=N\NC(=O)Nc1ccc(C(F)(F)F)cc1 (configuration not stated)	205 to 207 °C
CCCCC(CC)COC(=O)Nc1ccc(C=C(C#N)C(=O)OCC)cc1 (configuration not stated)	105 °C
Cc1cccc2c(=O)n(CCCN3CC=C(c4ccc(Cl)cc4)CC3)c(=O)[nH]c12	215 to 217 °C
Cc1ccccc1C(=NC(=Nc1ccccc1)N1CCC(=O)CC1)Nc1ccc(F)cc1	234 to 235 °C
CCOC(=O)COc1ccc2cnn(C[C@H](C)NC(=O)OCc3ccccc3)c2c1Br	89 to 90 °C
COc1cc(-c2cccc3ccccc23)nc(N)n1	160 °C
COC(=O)c1ccc([N+](=O)[O-])c(OC(C)C)c1	46 to 48 °C
O=c1[nH]c2cc(Cl)ccc2c(O)c1Sc1ccccc1Cl	> 300 °C

SMILES	melting point
CC(=O)Nc1ccc2c(-c3ccccc3)c([N+](=O)[O-])oc2c1	212 to 214 °C
CC(=O)Nc1ccc(C)cc1C(=O)c1ccc(F)cc1	140 to 145 °C
CCCNC(=O)C1=CCC2C3CCc4cc(O)ccc4C3CCC12C (configuration not stated)	168 to 169 °C
N#Cc1c(O)nc2ccc([N+](=O)[O-])cc2c1O	281 to 282 °C
COCCCS(=O)(=O)NC(=O)/C=C/c1cc(OCC2CC2)nn1Cc1ccc(C(F)(F)F)cc1Cl	137 to 138 °C
COc1cc2ncc(C#N)c(Nc3ccc(O)cc3Cl)c2cc1OC	> 250 °C
CN(C)C(=O)c1cc(=O)c2ccsc2s1	126 °C
CCCCCCC(C)(C)c1cc(OC)c(C2=C[C@@H]3CC[C@@]2(C(=O)O)C3(C)C)c(OC)c1	101 to 102 °C
O=C(O)CCCc1cc2nc(C(F)(F)F)ccc2n1S(=O)(=O)c1ccc2c(c1)OCCO2	158 °C
CN(C)Cc1ccc(SC2CCN(C(c3ccccc3)(c3ccccc3)c3ccccc3)CC2)cc1	163 °C
CCCCOC(=O)C(NC(=O)OCC(Cl)(Cl)Cl)n1cnc2ncncc21 (configuration not stated)	114 to 116 °C
CC(=O)C(C)(O)c1ccc(O)cc1 (configuration not stated)	101 to 102 °C
CNC(=O)c1ncn2c(=O)n(CCCl)nnc12	120 to 122 °C
COC(=O)c1ccc(OCCCO/N=C/c2cn(Cc3ccccc3)c3ccccc23)cc1O	100 to 102 °C
COc1ccc(-c2cc(-c3ccccc3F)c(C#N)c(C)n2)cc1	152 to 153 °C
CN(C)Cc1cccc(C(F)(F)C(F)(F)c2ccccc2)c1CN	71 to 83 °C
Nc1ccncc1Nc1ccc2[nH]ccc2c1	83 to 90 °C
Cc1cccc(NC(=O)NC2N=C(c3ccccc3)c3ccccc3N(C)C2=O)c1 (configuration not stated)	207 to 209 °C
CC(C)(CCC(=O)O)N(Cl)Cl	35 to 38 °C
O=C(C=Cc1ccccc1)Oc1ccc(Br)cc1	113 °C
Cc1ccc(S(=O)(=O)NC(=O)NCCC(F)=C(F)F)cc1	134 to 136 °C
CCCCNc1cccc([N+](=O)[O-])c1C#N	72 to 74 °C
Cc1noc(NS(=O)(=O)c2ccc(S(=O)(=O)c3ccccc3)s2)c1Br	139 to 142 °C
